Consider 29 compounds from patent US10696692B2, “Amido-benzyl sulfone and sulfoxide derivates” (Forma TM, LLC, priority 2012, dated 2020).

One test has as its target NAMPT (Homo sapiens (Human), UniProt P43490). Briefly: Assay 1: Biochemical Inhibition Assay (NAMPT enzymatic reaction, NMN quantified by mass spectrometry).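 Note: recombinant His-tagged human NAMPT preincubated with compound 15 min, then reacted 30 min at rt with 1 µM NAM, 100 µM PRPP, 2.5 mM ATP, NMN product read by RapidFire MS, normalized to L-Cystathionine internal standard.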 As to conditions: read-out: Biochemical (IC50).
A further test concerns A2780 cells. The experiment in a line: Assay 2: In-Vitro Cell Proliferation Assay (A2780 cells, SRB readout, 72 hours).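 Note: viable cells counted via sulforhodamine B staining, absorbance at 570 nm, after 72 h exposure at 37 °C, DMSO 0.1% as control, media-only background subtracted.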 It counts as cell-based. As to conditions: A2780 cells, 72 hours, SRB, read-out: Cell Proliferation (IC50).

Where two headings read alike, the source gives them in different places.

Chain of NAMPT (P43490 whole entry): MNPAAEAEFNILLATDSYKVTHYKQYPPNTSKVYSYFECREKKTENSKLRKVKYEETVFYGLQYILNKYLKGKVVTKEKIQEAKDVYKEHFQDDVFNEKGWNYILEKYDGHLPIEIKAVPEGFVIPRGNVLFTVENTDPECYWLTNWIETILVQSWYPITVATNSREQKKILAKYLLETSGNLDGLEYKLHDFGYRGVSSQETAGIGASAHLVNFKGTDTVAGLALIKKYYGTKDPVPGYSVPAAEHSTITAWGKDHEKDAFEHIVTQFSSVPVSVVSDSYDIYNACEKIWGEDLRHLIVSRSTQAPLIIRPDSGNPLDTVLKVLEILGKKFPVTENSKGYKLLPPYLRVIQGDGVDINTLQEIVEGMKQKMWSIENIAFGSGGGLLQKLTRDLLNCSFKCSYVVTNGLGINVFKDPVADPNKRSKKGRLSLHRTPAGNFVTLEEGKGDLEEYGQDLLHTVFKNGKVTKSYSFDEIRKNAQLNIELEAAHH

Regarding `NC1CCN(S(=O)(=O)c2ccc(CNC(=O)c3ccc4nccn4c3)cc2)CC1` [Example 317, N-[[4-[(4-amino-1-piperidyl)sulfonyl]phenyl]methyl]imidazo[1,2-a]pyridine-6-carboxamide], the IC50 on NAMPT came out at 0.0821 µM; in the test on A2780 cells (Homo sapiens, A2780, 72 h) it was 0.0877 µM.
The like results for `O=C(NCc1ccc(S(=O)(=O)N2CC3CCC(C2)O3)cc1)c1cc2ccncc2s1` [Example 3, Thieno[2,3-c]pyridine-2-carboxylic acid 4-(8-oxa-3-aza-bicyclo[3.2.1]octane-3-sulfonyl)-benzylamide] were, in that order, 0.0126 µM and 0.0064 µM.
The like results for `CC(C)(C)OC(=O)N1CCCC2(C1)CN(S(=O)(=O)c1ccc(CNC(=O)c3ccc4nccn4c3)cc1)CCO2` (racemic) [Example 126, 4-(4-{[(Imidazo[1,2-a]pyridine-6-carbonyl)-amino]-methyl}-benzenesulfonyl)-1-oxa-4,8-diaza-spiro[5.5]undecane-8-carboxylic acid tert-butyl ester] were, in that order, 0.0175 µM and 0.00125 µM.
Regarding `CN1CCC2(C1)CN(S(=O)(=O)c1ccc(CNC(=O)c3ccc4nccn4c3)cc1)C2` [Example 216, N-[[4-[(7-methyl-2,7-diazaspiro[3.4]octan-2-yl)sulfonyl]phenyl]methyl] imidazo[1,2-a]pyridine-6-carboxamide], the IC50 at NAMPT amounted to 0.0304 µM; in the test on A2780 cells (Homo sapiens, A2780, 72 h), 0.0137 µM.
The like results for `CC(C)(C)OC(=O)N1CCCC12CCN(S(=O)(=O)c1ccc(CNC(=O)c3ccc4nccn4c3)cc1)CC2` [Example 125, 8-(4-{[(Imidazo[1,2-a]pyridine-6-carbonyl)-amino]-methyl}-benzenesulfonyl)-1,8-diaza-spiro[4.5]decane-1-carboxylic acid tert-butyl ester] were, in that order, 0.0112 µM and 0.00137 µM.
For `CC(C)(C)OC(=O)N1CC2CN(S(=O)(=O)c3ccc(CNC(=O)c4ccc5nccn5c4)cc3)CC2C1` (racemic) [Example 137, cis-5-(4-{[(Imidazo[1,2-a]pyridine-6-carbonyl)-amino]-methyl}-benzenesulfonyl)-hexahydro-pyrrolo[3,4-c]pyrrole-2-carboxylic acid tert-butyl ester] the same measures were 0.0105 µM and 0.00423 µM.
The like results for `O=C(NCc1ccc(S(=O)(=O)N2CCC[C@@H](O)C2)cc1)c1cc2cnccc2[nH]1` [Example 50, 1H-Pyrrolo[3,2-c]pyridine-2-carboxylic acid 4-((R)-3-hydroxy-piperidine-1-sulfonyl)-benzylamide] were, in that order, 0.0362 µM and 0.0239 µM.
With `O=C(NCc1ccc(S(=O)(=O)N2CCC(F)(F)C2)cc1)c1ccc2nccn2c1` [Example 99, Imidazo[1,2-a]pyridine-6-carboxylic acid 4-(3,3-difluoro-pyrrolidine-1-sulfonyl)-benzylamide], the IC50 on NAMPT is 0.0158 µM; in the test on A2780 cells (Homo sapiens, A2780, 72 h), 0.0077 µM.
On to `CC(=O)N1CC2(C1)CN(S(=O)(=O)c1ccc(CNC(=O)c3ccc4nccn4c3)cc1)C2` [Example 259, N-[[4-[(6-acetyl-2,6-diazaspiro[3.3]heptan-2-yl)sulfonyl]phenyl]methyl] imidazo[1,2-a]pyridine-6-carboxamide], for which the IC50 at NAMPT turned out to be 0.0378 µM; in the test with A2780 cells (Homo sapiens, A2780, 72 h), 0.07 µM.
For `O=C(NCc1ccc(S(=O)(=O)N2CCCCC2)cc1)c1ccc2ncnn2c1` [Example 45, [1,2,4]Triazolo[1,5-a]pyridine-6-carboxylic acid 4-(piperidine-1-sulfonyl)-benzylamide] the same measures were 0.0172 µM and 1 µM.
With `O=C(NCc1ccc(S(=O)(=O)N2CCCCC2)cc1)c1ccn2nccc2n1` [Example 58, Pyrazolo[1,5-a]pyrimidine-5-carboxylic acid 4-(piperidine-1-sulfonyl)-benzylamide], the IC50 at NAMPT is 0.24 µM; in the test with A2780 cells (Homo sapiens, A2780, 72 h) it was 2 µM.
Turning to `O=C(NCc1ccc(S(=O)(=O)C2CCN(CC(F)(F)F)CC2)cc1)c1cc2ccncc2o1` [Example 67, Furo[2,3-c]pyridine-2-carboxylic acid 4-[1-(2,2,2-trifluoro-ethyl)-piperidine-4-sulfonyl]-benzylamide], the IC50 at NAMPT was found to be 0.0135 µM; in the test with A2780 cells it was 0.0054 µM.
On to `NC1CC2(CCN(S(=O)(=O)c3ccc(CNC(=O)c4ccc5nccn5c4)cc3)CC2)C1` [Example 323, N-[[4-[(2-amino-7-azaspiro[3.5]nonan-7-yl)sulfonyl]phenyl]methyl] imidazo[1,2-a]pyridine-6-carboxamide], for which the IC50 stood at 0.0177 µM at NAMPT and 0.0133 µM in the test on A2780 cells (Homo sapiens, A2780, 72 h).
For `O=C(NCc1ccc(S(=O)(=O)C2CCN(CC(F)(F)F)CC2)cc1)c1cc2cnccc2[nH]1` [Example 211, N-[[4-[[1-(2,2,2-trifluoroethyl)-4-piperidyl]sulfonyl]phenyl]methyl]-1H-pyrrolo[3,2-c]pyridine-2-carboxamide] the same measures were 0.0154 µM and 0.00323 µM.
For `CC(C)(C)OC(=O)N1C[C@H]2CN(S(=O)(=O)c3ccc(CNC(=O)c4ccc5nccn5c4)cc3)C[C@H]21` (racemic) [Example 128, cis-3-(4-{[(Imidazo[1,2-a]pyridine-6-carbonyl)-amino]-methyl}-benzenesulfonyl)-3,6-diaza-bicyclo[3.2.0]heptane-6-carboxylic acid tert-butyl ester] the same measures were 0.0469 µM and 0.0114 µM.
As for `CC(C)CN1CCC([S+]([O-])c2ccc(CNC(=O)c3cc4cnccc4[nH]3)cc2)CC1` (racemic) [Example 182, 1H-Pyrrolo[3,2-c]pyridine-2-carboxylic acid 4-(l-isobutyl-piperidine-4-sulfinyl)-benzylamide], the IC50 at NAMPT was found to be 0.0263 µM; in the test with A2780 cells (Homo sapiens, A2780, 72 h) it was 0.0056 µM.
As to `O=C(NCc1ccc(S(=O)(=O)C2CCN(C3COC3)CC2)cc1)c1cc2cnccc2[nH]1` [Example 115, 1H-Pyrrolo[3,2-c]pyridine-2-carboxylic acid 4-(1-oxetan-3-yl-piperidine-4-sulfonyl)-benzylamide], the IC50 turned out to be 0.0373 µM on NAMPT and 0.0115 µM in the test with A2780 cells (Homo sapiens, A2780, 72 h).
Regarding `O=C(NCc1ccc(S(=O)(=O)N2CCCC23CCNCC3)cc1)c1ccc2nccn2c1` [Example 331, N-[[4-(1,8-diazaspiro[4.5]decan-1-ylsulfonyl)phenyl]methyl] imidazo[1,2-a]pyridine-6-carboxamide], the IC50 at NAMPT stood at 0.355 µM; in the test on A2780 cells (Homo sapiens, A2780, 72 h) it was 0.774 µM.
Turning to `O=C(NCc1ccc(S(=O)(=O)N2C[C@@H]3C[C@H]2CC3(F)F)cc1)c1ccc2nccn2c1` (racemic) [Example 141, cis-Imidazo[1,2-a]pyridine-6-carboxylic acid 4-(5,5-difluoro-2-aza-bicyclo[2.2.1]heptane-2-sulfonyl)-benzylamide], the IC50 on NAMPT turned out to be 0.0148 µM; in the test with A2780 cells (Homo sapiens, A2780, 72 h) it was 0.0095 µM.
Regarding `COCCN1CCN(S(=O)(=O)c2ccc(CNC(=O)c3cnc4[nH]ncc4c3)cc2)CC1` [Example 173, 1H-Pyrazolo[3,4-b]pyridine-5-carboxylic acid 4-[4-(2-methoxy-ethyl)-piperazine-1-sulfonyl]-benzylamide], the IC50 amounted to 0.183 µM on NAMPT and 0.0862 µM in the test on A2780 cells (Homo sapiens, A2780, 72 h).
Take `O=C(NCc1ccc(S(=O)(=O)N2CCC[C@H]2CO)cc1)c1ccc2nccn2c1` [Example 107, Imidazo[1,2-a]pyridine-6-carboxylic acid 4-((S)-2-hydroxymethyl-pyrrolidine-1-sulfonyl)-benzylamide]: the IC50 was 0.0237 µM at NAMPT and 0.0154 µM with A2780 cells (Homo sapiens, A2780, 72 h).
The like results for `O=C(NCc1ccc(S(=O)(=O)N2CCOCC2)cc1)c1cnc2nccn2c1` [Example 15, Imidazo[1,2-a]pyrimidine-6-carboxylic acid 4-(morpholine-4-sulfonyl)-benzylamide] were, in that order, 0.0068 µM and 0.624 µM.
The like results for `O=C(NCc1ccc(S(=O)(=O)C2CCN(CC(F)(F)F)CC2)cc1)c1cc2ccncc2o1` [Example 212, N-[[4-[[1-(2,2,2-trifluoroethyl)-4-piperidyl]sulfonyl]phenyl]methyl]furo[2,3-c]pyridine-2-carboxamide] were, in that order, 0.0135 µM and 0.00535 µM.
As for `CC(C)CN1CCC([S+]([O-])c2ccc(CNC(=O)c3cc4cnccc4[nH]3)cc2)CC1` (stereo not shown) [Example 191, N-[[4-[(1-isobutyl-4-piperidyl)sulfinyl]phenyl]methyl]-1H-pyrrolo[3,2-c]pyridine-2-carboxamide], the IC50 turned out to be 0.0263 µM at NAMPT and 0.0056 µM with A2780 cells (Homo sapiens, A2780, 72 h).
Take `O=C(NCc1ccc(S(=O)(=O)C2CCN(C(=O)c3ccccc3)C2)cc1)c1cnc2[nH]ncc2c1` (stereo not shown) [Example 351, N-[[4-(1-benzoylpyrrolidin-3-yl)sulfonylphenyl]methyl]-1H-pyrazolo[3,4-b]pyridine-5-carboxamide]: the IC50 on NAMPT came out at 0.0711 µM; in the test with A2780 cells (Homo sapiens, A2780, 72 h) it was 0.107 µM.
For `O=C(NCc1ccc(S(=O)(=O)N2CCC(NCC(F)F)CC2)cc1)c1cnc2[nH]ncc2c1` [Example 37, 1H-Pyrazolo[3,4-b]pyridine-5-carboxylic acid 4-[4-(2,2-difluoro-ethylamino)-piperidine-1-sulfonyl]-benzylamide] the same measures were 0.0441 µM and 0.0139 µM.
Take `O=C(NCc1ccc(S(=O)(=O)[C@@H]2CCOC2)cc1)c1cnc2[nH]ncc2c1` [Example 233, N-[[4-((3R)-tetrahydrofuran-3-yl]sulfonylphenyl]methyl]-1H-pyrazolo[3,4-b]pyridine-5-carboxamide]: the IC50 at NAMPT is 0.227 µM; in the test on A2780 cells (Homo sapiens, A2780, 72 h) it was 1.59 µM.
As for `O=C(NCc1ccc(S(=O)(=O)N2CC3CC2CO3)cc1)c1cc2ccncc2o1` (stereo not shown) [Example 304, N-[[4-(2-oxa-5-azabicyclo[2.2.1]heptan-5-ylsulfonyl)phenyl]methyl]furo [2,3-c]pyridine-2-carboxamide], the IC50 on NAMPT was 0.0652 µM; in the test on A2780 cells (Homo sapiens, A2780, 72 h), 0.0419 µM.
With `O=C(NCc1ccc(S(=O)(=O)N2CCOC3(CCCNC3)C2)cc1)c1ccc2nccn2c1` (stereo not shown) [Example 322, N-[[4-(1-oxa-4,8-diazaspiro[5.5]undecan-4-ylsulfonyl)phenyl]methyl] imidazo[1,2-a]pyridine-6-carboxamide], the IC50 amounted to 0.0434 µM at NAMPT and 0.039 µM with A2780 cells (Homo sapiens, A2780, 72 h).
